Results reported in patent publication US20260317320A1, “C5AR1 ANTAGONISTS AND USES THEREOF” (Vanqua Bio, Inc., priority 2022, published 2026).
Read-outs that look alike come from different tables or passages of the source.

How the values were obtained:
[1] = molecular target: T1, complement C5a receptor 1 (C5aR1) (Homo sapiens, UniProt P21730); assay: β-arrestin recruitment via C5aR1 activation in live CHO-K1 cells (PathHunter), agonist mode; assay type: cell-based
T1 construct: β-galactosidase fragment (PathHunter enzyme complementation); host or cells: CHO-K1 (PathHunter CHO-K1 C5aR1 β-arrestin cell line)
T1 sequence (P21730 1-350): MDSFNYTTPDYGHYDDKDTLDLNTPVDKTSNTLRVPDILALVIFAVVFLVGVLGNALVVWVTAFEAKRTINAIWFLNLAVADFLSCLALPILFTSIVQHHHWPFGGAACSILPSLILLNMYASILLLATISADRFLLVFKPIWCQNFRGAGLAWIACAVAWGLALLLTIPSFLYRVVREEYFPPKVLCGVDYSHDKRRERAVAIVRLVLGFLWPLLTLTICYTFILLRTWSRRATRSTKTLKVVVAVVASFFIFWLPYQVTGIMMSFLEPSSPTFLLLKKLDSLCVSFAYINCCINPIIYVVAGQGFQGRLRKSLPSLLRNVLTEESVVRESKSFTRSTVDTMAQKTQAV
Experimental: (§1) Exemplary compounds were evaluated for classical GPCR β-arrestin recruitment via complement C5a receptor 1 (C5aR1) activation in live CHO-K1 cells. This cell line expresses two fragments of the […] protein coupled to β-arrestin and C5aR1. Complementation of the two fragments allows for the assessment of both C5aR1 agonism and antagonism. Recombinant hC5a (EC90) was used as the competing natural agonist against disclosed compounds (more information on the expanded protocol and cell line can be found on the manufacturer's website: PathHunter® CHO-K1 C5aR1 β-arrestin cell line, DiscoverX, Catalog No. 93-0557C2). […] IC50 ranges: A: IC50≤500 nM; B: 500 nM<IC50≤5 uM; C: 5 uM<IC50≤100 uM; D: IC50>100 uM.

[2] = molecular target: T1, complement C5a receptor 1 (C5aR1); assay: β-arrestin recruitment via C5aR1 activation in live CHO-K1 cells (PathHunter), antagonist mode; assay type: cell-based; settings: antagonist mode; recombinant hC5a (EC90) as competing natural agonist; live CHO-K1 cells; read-out: [Antagonist] B-arrestin2 recruitment: Average IC50
Experimental: as §1; call rule not given here

## Cc1cnc2cc(C3CCN(c4c(C)ccnc4F)CC3)c(=O)n(Cc3ncccc3C(F)(F)F)c2n1 [compound 133, 7-(1-(2-Fluoro-4-methylpyridin-3-yl)piperidin-4-yl)-3-methyl-5-((3-(trifluoromethyl)pyridin-2-yl)methyl)pyrido[2,3-b]pyrazin-6(5H)-one]
[1]
  [Agonist] B-arrestin2 recruitment: Average EC50 (nM): Non-Active
[2]
  IC50: < 500 nM

## CCc1cnc2cc([C@H]3CC[C@H](c4c(C)cccc4F)CC3)c(=O)n(Cc3ncccc3OC(F)(F)F)c2n1 [compound 204, 3-Ethyl-7-((1r,4r)-4-(2-fluoro-6-methylphenyl)cyclohexyl)-5-((3-(trifluoromethoxy)pyridin-2-yl)methyl)pyrido[2,3-b]pyrazin-6(5H)-one]
[1]; at 10 μM
  [Agonist] B-arrestin2 recruitment: Average EC50 (nM): Non-Active at 10 μM
[2]
  IC50: < 500 nM

## Cc1cnc2cc([C@@H]3CC[C@@H](c4c(C)cccc4F)C3)c(=O)n(Cc3nccnc3C(F)(F)F)c2n1 [197D, 7-((1R,3R)-3-(2-Fluoro-6-methylphenyl)cyclopentyl)-3-methyl-5-((3-(trifluoromethyl)pyrazin-2-yl)methyl)pyrido[2,3-b]pyrazin-6(5H)-one]
[1]
  [Agonist] B-arrestin2 recruitment: Average EC50 (nM): Non-Active
[2]
  IC50: < 500 nM

## Cc1cnc2cc(C3CCN(c4c(F)ccc5c4cnn5C)CC3)c(=O)n(Cc3ncccc3C(F)(F)F)c2n1 [compound 184, 7-(1-(5-Fluoro-1-methyl-1H-indazol-4-yl)piperidin-4-yl)-3-methyl-5-((3-(trifluoromethyl)pyridin-2-yl)methyl)pyrido[2,3-b]pyrazin-6(5H)-one]
[1]; at 10 μM
  [Agonist] B-arrestin2 recruitment: Average EC50 (nM): Non-Active at 10 μM
[2]
  IC50: 500 to 5000 nM

## Cc1nccnc1N1CCC(c2cc3nccnc3n(Cc3ccccc3C(F)(F)F)c2=O)CC1 [compound 8, 7-(1-(3-Methylpyrazin-2-yl)piperidin-4-yl)-5-(2-(trifluoromethyl)benzyl)pyrido[2,3-b]pyrazin-6(5H)-one]
[1]
  [Agonist] B-arrestin2 recruitment: Average EC50 (nM): Non-Active
[2]
  IC50: 5000 to 100000 nM

## Cc1cnc2cc(C3CCN(c4c(C)cccc4F)CC3)c(=O)n(Cc3nccnc3C(F)(F)F)c2n1 [compound 25, 7-(1-(2-Fluoro-6-methylphenyl)piperidin-4-yl)-3-methyl-5-((3-(trifluoromethyl)pyrazin-2-yl)methyl)pyrido[2,3-b]pyrazin-6(5H)-one]
[1]
  [Agonist] B-arrestin2 recruitment: Average EC50 (nM): Non-Active
[2]
  IC50: < 500 nM

## Cc1cccc(F)c1N1CCC(c2cc3nccnc3n([C@H]3CCCc4nccnc43)c2=O)CC1 [43b, (S)-7-(1-(2-Fluoro-6-methylphenyl)piperidin-4-yl)-5-(5,6,7,8-tetrahydroquinoxalin-5-yl)pyrido[2,3-b]pyrazin-6(5H)-one]
[1]
  [Agonist] B-arrestin2 recruitment: Average EC50 (nM): Non-Active
[2]
  IC50: 500 to 5000 nM

## Cc1cnc(F)cc1N1CCC(c2cc3nccnc3n(Cc3ccccc3C(F)(F)F)c2=O)CC1 [compound 26, 7-(1-(2-fluoro-5-methylpyridin-4-yl)piperidin-4-yl)-5-(2-(trifluoromethyl)benzyl)pyrido-[2,3-b]pyrazin-6(5H)-one]
[1]
  [Agonist] B-arrestin2 recruitment: Average EC50 (nM): Non-Active
[2]
  IC50: 500 to 5000 nM

## Cc1nccnc1Cn1c(=O)c(C2CCN(c3c(F)cccc3C(F)(F)F)CC2)cc2nccnc21 [compound 126, 7-(1-(2-Fluoro-6-(trifluoromethyl)phenyl)piperidin-4-yl)-5-((3-methylpyrazin-2-yl)methyl)pyrido[2,3-b]pyrazin-6(5H)-one]
[1]
  [Agonist] B-arrestin2 recruitment: Average EC50 (nM): Non-Active
[2]
  IC50: 500 to 5000 nM

## Cc1cccc(F)c1N1CCC(c2cc3nccnc3n([C@@H]3CCCc4cccnc43)c2=O)CC1 [40a, (R)-7-(1-(2-Fluoro-6-methylphenyl)piperidin-4-yl)-5-(5,6,7,8-tetrahydroquinolin-8-yl)pyrido[2,3-b]pyrazin-6(5H)-one]
[1]
  [Agonist] B-arrestin2 recruitment: Average EC50 (nM): Non-Active
[2]
  IC50: 5000 to 100000 nM

## Cc1cnc2c(cc([C@H]3CC[C@H](c4c(C)cccc4F)CC3)c(=O)n2Cc2ncccc2C(F)(F)F)n1 [compound 182, 7-((1r,4r)-4-(2-Fluoro-6-methylphenyl)cyclohexyl)-2-methyl-5-((3-(trifluoromethyl)pyridin-2-yl)methyl)pyrido[2,3-b]pyrazin-6(5H)-one]
[1]; at 10 μM
  [Agonist] B-arrestin2 recruitment: Average EC50 (nM): Non-Active at 10 μM
[2]
  IC50: < 500 nM

## Cc1cccc(F)c1[C@H]1CC[C@H](c2cc3ncc(C(F)F)nc3n(Cc3ncccc3C(F)(F)F)c2=O)CC1 [compound 240, 3-(Difluoromethyl)-7-((1r,4r)-4-(2-fluoro-6-methylphenyl)cyclohexyl)-5-((3-(trifluoromethyl)pyridin-2-yl)methyl)pyrido[2,3-b]pyrazin-6(5H)-one]
[1]
  [Agonist] B-arrestin2 recruitment: Average EC50 (nM): Non-Active
[2]
  IC50: < 500 nM

## Cc1cnc2cc(C3CCN(c4nccnc4C)CC3)c(=O)n(Cc3ncccc3OC(F)(F)F)c2n1 [compound 153, 3-Methyl-7-(1-(3-methylpyrazin-2-yl)piperidin-4-yl)-5-((3-(trifluoromethoxy)pyridin-2-yl)methyl)pyrido[2,3-b]pyrazin-6(5H)-one]
[1]; at 10 μM
  [Agonist] B-arrestin2 recruitment: Average EC50 (nM): Non-Active at 10 μM
[2]
  IC50: 500 to 5000 nM

## Cc1cnc2cc(C3CCN(c4c(C)cccc4F)CC3)c(=O)n([C@@H]3CCCc4nccnc43)c2n1 [61b, (R)-7-(1-(2-fluoro-6-methylphenyl)piperidin-4-yl)-3-methyl-5-(5,6,7,8-tetrahydroquinoxalin-5-yl)pyrido[2,3-b]pyrazin-6(5H)-one]
[1]
  [Agonist] B-arrestin2 recruitment: Average EC50 (nM): Non-Active
[2]
  IC50: < 500 nM

## Cc1cnc2cc([C@H]3CC[C@H](c4c(C)cccc4F)C3)c(=O)n(Cc3nccnc3C(F)(F)F)c2n1 [197B, 7-((1S,3S)-3-(2-Fluoro-6-methylphenyl)cyclopentyl)-3-methyl-5-((3-(trifluoromethyl)pyrazin-2-yl)methyl)pyrido[2,3-b]pyrazin-6(5H)-one]
[1]; at 10 μM
  [Agonist] B-arrestin2 recruitment: Average EC50 (nM): Non-Active at 10 μM
[2]
  IC50: 500 to 5000 nM

## Cc1cccc(F)c1[C@@H]1CC[C@@H](c2cc3nccnc3n(Cc3ncccc3C(F)(F)F)c2=O)C1 [200D, 7-((1R,3R)-3-(2-Fluoro-6-methylphenyl)cyclopentyl)-5-((3-(trifluoromethyl)pyridin-2-yl)methyl)pyrido[2,3-b]pyrazin-6(5H)-one]
[1]; at 10 μM
  [Agonist] B-arrestin2 recruitment: Average EC50 (nM): Non-Active at 10 μM
[2]
  IC50: < 500 nM

## Cc1cccc(F)c1N1CCN(c2cc3nccnc3n(Cc3nccnc3C(F)(F)F)c2=O)CC1 [compound 24, 7-(4-(2-Fluoro-6-methylphenyl)piperazin-1-yl)-5-((3-(trifluoromethyl)pyrazin-2-yl)methyl)pyrido[2,3-b]pyrazin-6(5H)-one]
[1]
  [Agonist] B-arrestin2 recruitment: Average EC50 (nM): Non-Active
[2]
  IC50: 500 to 5000 nM

## Cc1cccc(F)c1[C@H]1CC[C@H](c2cc3nccnc3n(Cc3ncccc3C(F)(F)F)c2=O)C1 [200B, 7-((1S,3S)-3-(2-Fluoro-6-methylphenyl)cyclopentyl)-5-((3-(trifluoromethyl)pyridin-2-yl)methyl)pyrido[2,3-b]pyrazin-6(5H)-one]
[1]; at 10 μM
  [Agonist] B-arrestin2 recruitment: Average EC50 (nM): Non-Active at 10 μM

## Cc1cccc(F)c1[C@@H]1CC[C@H](c2cc3nccnc3n(Cc3ncccc3C(F)(F)F)c2=O)C1 [200A, 7-((1S,3R)-3-(2-Fluoro-6-methylphenyl)cyclopentyl)-5-((3-(trifluoromethyl)pyridin-2-yl)methyl)pyrido[2,3-b]pyrazin-6(5H)-one]
[1]; at 10 μM
  [Agonist] B-arrestin2 recruitment: Average EC50 (nM): Non-Active at 10 μM

## Cc1cnc2cc([C@H]3CC[C@H](c4c(C)ccc5c4cnn5C)CC3)c(=O)n(Cc3ncccc3C(F)(F)F)c2n1 [compound 218, 7-((1r,4r)-4-(1,5-Dimethyl-1H-indazol-4-yl)cyclohexyl)-3-methyl-5-((3-(trifluoromethyl)pyridin-2-yl)methyl)pyrido[2,3-b]pyrazin-6(5H)-one]
[1]; at 10 μM
  [Agonist] B-arrestin2 recruitment: Average EC50 (nM): Non-Active at 10 μM

## Cc1ccc2c(c1)nc(C1CCN(c3c(C)cccc3F)CC1)c(=O)n2Cc1ncccc1C(F)(F)F [142B, 3-(1-(2-Fluoro-6-methylphenyl)piperidin-4-yl)-6-methyl-1-((3-(trifluoromethyl)pyridin-2-yl)methyl)quinoxalin-2(1H)-one]
[1]
  [Agonist] B-arrestin2 recruitment: Average EC50 (nM): Non-Active
